What was measured:
[1] = molar heat capacity at saturation pressure
[2] = Molar enthalpy of transition or fusion
[3] = for vapor or sublimation pressure: Liquid; for Triple point temperature: Adiabatic calorimetry

C1CCC(SC2CCCCC2)CC1 [dicyclohexyl sulfide]
[1]
Conditions | molar heat capacity [J/K/mol]
5 K, Crystal 3 | 0.65
7.076 K, Crystal 3, Vacuum adiabatic calorimetry | 1.83
8.093 K, Crystal 3, Vacuum adiabatic calorimetry | 2.68
9.092 K, Crystal 3, Vacuum adiabatic calorimetry | 3.7
10 K, Crystal 3 | 4.79
10.12 K, Crystal 3, Vacuum adiabatic calorimetry | 4.94
11.22 K, Crystal 3, Vacuum adiabatic calorimetry | 6.32
12.48 K, Crystal 3, Vacuum adiabatic calorimetry | 8.05
13.88 K, Crystal 3, Vacuum adiabatic calorimetry | 10.26
15 K, Crystal 3 | 12.08
15.44 K, Crystal 3, Vacuum adiabatic calorimetry | 12.81
17.17 K, Crystal 3, Vacuum adiabatic calorimetry | 15.8
19.09 K, Crystal 3, Vacuum adiabatic calorimetry | 19.16
20 K, Crystal 3 | 20.77
21.2 K, Crystal 3, Vacuum adiabatic calorimetry | 22.91
23.53 K, Crystal 3, Vacuum adiabatic calorimetry | 27.09
25 K, Crystal 3 | 29.63
26.12 K, Crystal 3, Vacuum adiabatic calorimetry | 31.54
29 K, Crystal 3, Vacuum adiabatic calorimetry | 36.28
30 K, Crystal 3 | 37.98
32.2 K, Crystal 3, Vacuum adiabatic calorimetry | 41.46
33.51 K, Crystal 3, Vacuum adiabatic calorimetry | 43.05
35 K, Crystal 3 | 45.26
35.74 K, Crystal 3, Vacuum adiabatic calorimetry | 46.49
36 K, Crystal 3 | 46.79
37 K, Crystal 3 | 48.49
37.54 K, Crystal 3, Vacuum adiabatic calorimetry | 49.5
38 K, Crystal 3 | 50.1
39 K, Crystal 3 | 53.43
39.08 K, Crystal 3, Vacuum adiabatic calorimetry | 53.4
40 K, Crystal 3 | 59.33
40.2 K, Crystal 3 | 61.57
40.4 K, Crystal 3 | 65.04
40.6 K, Crystal 3 | 70.56
40.8 K, Crystal 3 | 79.24
41 K, Crystal 3 | 92.56
41.1 K, Crystal 3 | 101.56
41.2 K, Crystal 3 | 112.49
41.3 K, Crystal 3 | 125.67
41.35 K, Crystal 2 | 132.62
41.35 K, Crystal 3 | 132.62
41.4 K, Crystal 2 | 124.85
41.5 K, Crystal 2 | 113.3
41.6 K, Crystal 2 | 103.72
41.7 K, Crystal 2 | 95.82
41.8 K, Crystal 2 | 89.37
41.9 K, Crystal 2 | 84.14
42 K, Crystal 2 | 79.94
42.1 K, Crystal 2 | 76.58
42.2 K, Crystal 2 | 73.92
42.3 K, Crystal 2 | 71.85
42.4 K, Crystal 2 | 70.24
42.5 K, Crystal 2 | 68.99
42.6 K, Crystal 2 | 68.04
42.7 K, Crystal 2 | 67.3
42.8 K, Crystal 2 | 66.72
42.9 K, Crystal 2 | 66.27
43 K, Crystal 2 | 65.89
44 K, Crystal 2 | 63.21
44.5 K, Crystal 2, Vacuum adiabatic calorimetry | 62.94
45 K, Crystal 2 | 62.78
45.83 K, Crystal 2, Vacuum adiabatic calorimetry | 62.98
46 K, Crystal 2 | 63.03
48 K, Crystal 2 | 64
48.81 K, Crystal 2, Vacuum adiabatic calorimetry | 64.58
50 K, Crystal 2 | 65.53
53.62 K, Crystal 2, Vacuum adiabatic calorimetry | 68.84
54.45 K, Crystal 2, Vacuum adiabatic calorimetry | 69.65
55 K, Crystal 2 | 70.15
58.57 K, Crystal 2, Vacuum adiabatic calorimetry | 73.26
60 K, Crystal 2 | 74.51
64.06 K, Crystal 2, Vacuum adiabatic calorimetry | 78.07
70 K, Crystal 2 | 83.42
70.24 K, Crystal 2, Vacuum adiabatic calorimetry | 83.65
77.05 K, Crystal 2, Vacuum adiabatic calorimetry | 89.46
80 K, Crystal 2 | 91.91
82.72 K, Crystal 2, Vacuum adiabatic calorimetry | 94.2
84.66 K, Crystal 2, Vacuum adiabatic calorimetry | 95.88
89.87 K, Crystal 2, Vacuum adiabatic calorimetry | 100.11
90 K, Crystal 2 | 100.24
93.06 K, Crystal 2, Vacuum adiabatic calorimetry | 102.76
98.25 K, Crystal 2, Vacuum adiabatic calorimetry | 106.88
100 K, Crystal 2 | 108.32
101.97 K, Crystal 2, Vacuum adiabatic calorimetry | 109.92
107.36 K, Crystal 2, Vacuum adiabatic calorimetry | 114.09
117.01 K, Crystal 2, Vacuum adiabatic calorimetry | 121.51
120 K, Crystal 2 | 123.79
126.84 K, Crystal 2, Vacuum adiabatic calorimetry | 128.96
136.8 K, Crystal 2, Vacuum adiabatic calorimetry | 136.33
140 K, Crystal 2 | 138.69
146.83 K, Crystal 2, Vacuum adiabatic calorimetry | 143.7
156.79 K, Crystal 2, Vacuum adiabatic calorimetry | 151.02
160 K, Crystal 2 | 153.38
167.83 K, Crystal 2, Vacuum adiabatic calorimetry | 159.16
179.9 K, Crystal 2, Vacuum adiabatic calorimetry | 168.19
180 K, Crystal 2 | 168.28
192 K, Crystal 2, Vacuum adiabatic calorimetry | 177.65
200 K, Crystal 2 | 184.16
204.1 K, Crystal 2, Vacuum adiabatic calorimetry | 187.6
212.64 K, Crystal 2, Vacuum adiabatic calorimetry | 194.77
216.18 K, Crystal 2, Vacuum adiabatic calorimetry | 197.93
220 K, Crystal 2 | 201.6
223.24 K, Crystal 2, Vacuum adiabatic calorimetry | 204.46
227.23 K, Crystal 2, Vacuum adiabatic calorimetry | 208.11
229.69 K, Crystal 2, Vacuum adiabatic calorimetry | 210.53
233.56 K, Crystal 2, Vacuum adiabatic calorimetry | 214.23
239.46 K, Crystal 2, Vacuum adiabatic calorimetry | 220.49
240 K, Crystal 2 | 221.21
243.62 K, Crystal 2, Vacuum adiabatic calorimetry | 224.96
245.76 K, Crystal 2, Vacuum adiabatic calorimetry | 227.13
249.49 K, Crystal 2, Vacuum adiabatic calorimetry | 232.29
250 K, Crystal 2 | 231.72
252.11 K, Crystal 2, Vacuum adiabatic calorimetry | 235.33
255.1 K, Crystal 2, Vacuum adiabatic calorimetry | 241.32
255.37 K, Crystal 2, Vacuum adiabatic calorimetry | 242.85
256.11 K, Crystal 2, Vacuum adiabatic calorimetry | 244.36
258.04 K, Crystal 2, Vacuum adiabatic calorimetry | 251.78
258.75 K, Crystal 2, Vacuum adiabatic calorimetry | 257.57
260 K, Crystal 2 | 264.46
264.7 K, Crystal 1 | 315.22
264.7 K, Crystal 2 | 316.1
267.11 K, Crystal 1, Vacuum adiabatic calorimetry | 316.81
270 K, Crystal 1 | 318.74
270.5 K, Crystal 1, Vacuum adiabatic calorimetry | 319.58
270.99 K, Crystal 1, Vacuum adiabatic calorimetry | 319.82
272.57 K, Crystal 1, Vacuum adiabatic calorimetry | 320.97
274.72 K, Crystal 1, Vacuum adiabatic calorimetry | 322.6
275.18 K, Crystal 1, Vacuum adiabatic calorimetry | 322.61
276.68 K, Crystal 1, Vacuum adiabatic calorimetry | 324.34
277.72 K, Crystal 1, Vacuum adiabatic calorimetry | 325.42
278.97 K, Crystal 1, Vacuum adiabatic calorimetry | 327.22
280 K, Crystal 1 | 325.48
284.2 K, Crystal 1 | 328.37
284.2 K, Liquid | 317.32
298.15 K, Liquid | 326.14
300 K, Liquid | 327.33
320 K, Liquid | 340.79
340 K, Liquid | 354.76
360 K, Liquid | 369.3
380 K, Liquid | 384.16
400 K, Liquid | 399.24
420 K, Liquid | 414.4
440 K, Liquid | 429.57

[1], Liquid, Vacuum adiabatic calorimetry
Conditions | molar heat capacity [J/K/mol]
287.6 K | 319.48
289.37 K | 320.58
290.6 K | 321.35
296.18 K | 324.86
296.81 K | 325.28
307.92 K | 332.58
321.65 K | 341.93
336.79 K | 352.46
352.3 K | 363.66
367.76 K | 375.02
383 K | 386.42
398.09 K | 397.79
413.1 K | 409.16
428.06 K | 420.5
439.99 K | 429.5

Conditions | Molar enthalpy of transition or fusion [kcal/mol] | Triple point temperature [K] | vapor or sublimation pressure [kPa]
[2], Crystal 1 | 1.358 | – | –
[2], Crystal 2 | 2.392 | – | –
[3], 334.98 K | – | – | 0.0195
[3], 344.99 K | – | – | 0.0387
[3], 354.98 K | – | – | 0.073
[3], 364.98 K | – | – | 0.1323
[3], 374.98 K | – | – | 0.2307
[3], 384.97 K | – | – | 0.3883
[3], 394.98 K | – | – | 0.6338
[3], 404.98 K | – | – | 1.004
[3], 414.96 K | – | – | 1.546
[3], 419.97 K | – | – | 1.902
[3], 424.96 K | – | – | 2.324
[3], 429.96 K | – | – | 2.825
[3], Crystal 1 | – | 284.2 | –
[3], Crystal 2 | – | 264.7 | –
[3], Crystal 3 | – | 41.35 | –

Source: the NIST ThermoML archive (doi:10.1016/j.jct.2003.11.012)
